Source: ChEMBL document CHEMBL4420076, “Amylin and calcitonin receptor agonist” (2017)
pEC50, pIC50: −log10 of the molar value. Numbered stars: 1 amine (or outer) side, 2 acyl side, 3 side chain; on linkers, the order of the positions; unused ones are H or OH. Side chains are listed from the residue outwards. Peptide text beside a SMILES is read from it. * marks the point of attachment. C20 diacid = O=C(O)CCCCCCCCCCCCCCCCCCC(=O)*; γGlu = O=C(O)[C@H](CCC(=O)[*:2])N[*:1]

Experiments:
[1] = Solubility in 100 mM bistrispropane buffer at pH 7.0 incubated for 18 hrs by UPLC analysis; type: physicochemical
[2] = Solubility in 100 mM glycylglycine buffer at pH 3.0 incubated for 18 hrs by UPLC analysis; type: physicochemical
Calcitonin receptor [3] = target: T1, Calcitonin receptor (Homo sapiens, UniProt P30988); experiment: Agonist activity at human calcitonin receptor expressed in BHK570 cells assessed as increase in intracellular cAMP concentration incubated for 3 hrs in absence of albumin by CRE luciferase reporter gene assay; type: functional, cell-based
T1 sequence (P30988 whole entry): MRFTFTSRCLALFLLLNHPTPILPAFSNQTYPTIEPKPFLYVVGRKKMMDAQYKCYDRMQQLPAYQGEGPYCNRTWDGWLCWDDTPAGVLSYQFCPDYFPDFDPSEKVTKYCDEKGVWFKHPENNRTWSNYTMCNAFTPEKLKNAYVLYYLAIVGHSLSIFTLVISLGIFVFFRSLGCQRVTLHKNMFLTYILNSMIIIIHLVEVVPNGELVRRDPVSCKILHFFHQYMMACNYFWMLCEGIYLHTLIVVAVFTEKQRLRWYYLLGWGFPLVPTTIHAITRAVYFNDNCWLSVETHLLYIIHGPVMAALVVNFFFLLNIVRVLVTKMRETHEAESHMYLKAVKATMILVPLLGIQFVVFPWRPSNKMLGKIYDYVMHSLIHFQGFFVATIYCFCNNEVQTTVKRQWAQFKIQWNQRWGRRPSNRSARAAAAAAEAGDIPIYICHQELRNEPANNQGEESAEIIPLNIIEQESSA

[4] = Stability in pH 7.5 buffer assessed as lag time for fibril formation at 1 uM by Thioflavin T based fluorescence assay; type: physicochemical; conditions: pH 7.5, 1 µM
Calcitonin receptor [5] = target: T1, Calcitonin receptor; experiment: Agonist activity at human calcitonin receptor expressed in BHK570 cells assessed as increase in intracellular cAMP concentration incubated for 3 hrs in presence of 10% FBS by CRE luciferase reporter gene assay; type: functional, cell-based
[6] = Solubility in 100 mM bistrispropane buffer at pH 8.0 incubated for 18 hrs by UPLC analysis; type: physicochemical
[7] = Solubility in 100 mM bistrispropane buffer at pH 7.5 incubated for 18 hrs by UPLC analysis; type: physicochemical
[8] = target: T2, Amylin receptor AMY3; CALCR/RAMP3 (Homo sapiens, UniProt O60896+P30988); experiment: Agonist activity at human amylin receptor expressed in BHK570 cells co-expressing RAMP3 assessed as increase in intracellular cAMP concentration incubated for 3 hrs in absence of albumin by CRE luciferase reporter gene assay; type: functional, cell-based
T2 sequence (P30988 whole entry): T1 sequence (P30988 whole entry)
T2 sequence (O60896 whole entry): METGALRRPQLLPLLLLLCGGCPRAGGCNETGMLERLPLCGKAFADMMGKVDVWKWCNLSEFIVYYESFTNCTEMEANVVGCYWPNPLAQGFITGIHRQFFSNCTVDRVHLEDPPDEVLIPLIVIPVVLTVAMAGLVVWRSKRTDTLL

[9] = target: T2, Amylin receptor AMY3; CALCR/RAMP3; experiment: Agonist activity at human amylin receptor expressed in BHK570 cells co-expressing RAMP3 assessed as increase in intracellular cAMP concentration incubated for 3 hrs in presence of 10% FBS by CRE luciferase reporter gene assay; type: functional, cell-based
[10] = Solubility in 100 mM bistrispropane buffer at pH 6.5 incubated for 18 hrs by UPLC analysis; type: physicochemical
[11] = Stability in pH 7.5 buffer assessed as compound recovery at 1 uM by Thioflavin T based fluorescence assay; type: physicochemical; conditions: read-out: Drug recovery
[12] = Solubility in 100 mM bistrispropane buffer at pH 6.0 incubated for 18 hrs by UPLC analysis; type: physicochemical
[13] = target: T3, Amylin receptor AMY3; CALCR/RAMP3 (Rattus norvegicus, UniProt P32214+Q9JJ73); experiment: Displacement of [125I]-labeled rat amylin from rat amylin receptor expressed in BHK tkts13 cell membranes co-expressing RAMP3 incubated for 120 mins by scintillation proximity assay
T3 sequence (P32214 whole entry): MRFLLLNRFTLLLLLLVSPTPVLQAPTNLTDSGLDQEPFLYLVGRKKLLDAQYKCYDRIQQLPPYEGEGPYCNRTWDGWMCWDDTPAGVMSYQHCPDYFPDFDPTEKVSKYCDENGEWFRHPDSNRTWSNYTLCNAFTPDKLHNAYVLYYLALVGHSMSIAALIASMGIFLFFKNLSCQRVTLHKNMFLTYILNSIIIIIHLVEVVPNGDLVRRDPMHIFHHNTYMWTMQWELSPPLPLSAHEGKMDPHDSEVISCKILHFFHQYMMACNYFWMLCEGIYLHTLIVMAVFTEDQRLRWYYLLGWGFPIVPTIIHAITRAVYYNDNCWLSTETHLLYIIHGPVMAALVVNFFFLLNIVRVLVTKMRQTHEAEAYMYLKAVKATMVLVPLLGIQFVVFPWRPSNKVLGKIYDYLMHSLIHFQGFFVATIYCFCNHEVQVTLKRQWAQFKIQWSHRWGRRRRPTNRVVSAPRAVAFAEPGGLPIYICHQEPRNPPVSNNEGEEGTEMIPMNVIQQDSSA
T3 sequence (Q9JJ73 whole entry): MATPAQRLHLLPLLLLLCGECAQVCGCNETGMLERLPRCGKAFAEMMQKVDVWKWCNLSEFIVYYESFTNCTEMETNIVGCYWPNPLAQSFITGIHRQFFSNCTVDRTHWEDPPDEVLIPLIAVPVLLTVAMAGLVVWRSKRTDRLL

[14] = Solubility in 100 mM glycylglycine buffer at pH 4.0 incubated for 18 hrs by UPLC analysis; type: physicochemical
[15] = Solubility in 100 mM glycylglycine buffer at pH 5.0 incubated for 18 hrs by UPLC analysis; type: physicochemical
Rattus norvegicus [16] = experiment: Reduction in food intake in Sprague-Dawley rat at 3 nmol/kg measured 24 to 48 hrs post dose relative to control; type: functional; set-up: scale not given: the % may be the effect or the level left
Rattus norvegicus [17] = experiment: Reduction in food intake in Sprague-Dawley rat at 3 nmol/kg measured 0 to 24 hrs post dose relative to control; type: functional; set-up: scale not given: the % may be the effect or the level left
[18] = target: T2, Amylin receptor AMY3; CALCR/RAMP3; experiment: Displacement of [125I]-labeled rat amylin from human amylin receptor expressed in BHK tkts13 whole cells co-expressing RAMP3 incubated for 60 mins by scintillation proximity assay; type: cell-based

solubility at 18 h [1] | solubility at 18 h [2] | pEC50 (Calcitonin receptor [3]) | Time [4] | pEC50 (Calcitonin receptor [5]) | solubility at 18 h [6] | solubility at 18 h [7] | pEC50 [8] | pEC50 [9] | solubility at 18 h [10] | remaining at 1 µM [11] | solubility at 18 h [12] | pIC50 [13] | solubility at 18 h [14] | solubility at 18 h [15] | pIC50 [18] | SMILES | Activity (Rattus norvegicus [16]) | Activity (Rattus norvegicus [17])
≥ 200 µM | ≥ 200 µM | 10.51 | > 45 h | 10.32 | ≥ 200 µM | ≥ 200 µM | 10.66 | 10.24 | ≥ 200 µM | 100% | ≥ 200 µM | 8.89 | ≥ 200 µM | ≥ 200 µM | – | CC(C)C[C@H](NC(=O)[C@H](C)NC(=O)[C@H](C)NC(=O)[C@@H](NC(=O)[C@H](CO)NC(=O)[C@H](CC(C)C)NC(=O)[C@H](CCC(=O)O)NC(=O)[C@H](CO)NC(=O)[C@H](C)N)[C@@H](C)O)C(=O)NCC(=O)N[C@@H](CCCNC(=N)N)C(=O)N[C@@H](CC(C)C)C(=O)N[C@@H](CO)C(=O)N[C@@H](C)C(=O)N[C@@H](CCCCNC(=O)CC[C@H](NC(=O)CCCCCCCCCCCCCCCCCCC(=O)O)C(=O)O)C(=O)N[C@@H](CC(C)C)C(=O)N[C@@H](Cc1cnc[nH]1)C(=O)N[C@@H](CCC(=O)O)C(=O)N[C@@H](CC(C)C)C(=O)N[C@@H](C)C(=O)N[C@H](C(=O)N[C@@H](CC(C)C)C(=O)N1CCC[C@H]1C(=O)N[C@@H](CCCNC(=N)N)C(=O)N[C@H](C(=O)N[C@@H](CCC(=O)O)C(=O)N[C@H](C(=O)NCC(=O)N[C@@H](CO)C(=O)NCC(=O)N[C@@H](CO)C(=O)N1CCC[C@H]1C(N)=O)[C@@H](C)O)[C@@H](C)O)[C@@H](C)O (H-ASELSTAALGRLSAK([γGlu-C20 diacid])LHELATLPRTETGSGSP-NH2) | – | –
≥ 200 µM | ≥ 200 µM | 10.85 | > 45 h | 10.54 | ≥ 200 µM | ≥ 200 µM | 10.89 | 10.29 | ≥ 200 µM | 100% | ≥ 200 µM | – | ≥ 200 µM | ≥ 200 µM | – | CC(C)C[C@H](NC(=O)[C@H](C)NC(=O)[C@H](C)NC(=O)[C@@H](NC(=O)[C@H](CO)NC(=O)[C@H](CC(C)C)NC(=O)[C@H](CCC(=O)O)NC(=O)[C@H](CO)NC(=O)[C@H](C)NC(=O)CC[C@H](NC(=O)CCCCCCCCCCCCCCCCCCC(=O)O)C(=O)O)[C@@H](C)O)C(=O)NCC(=O)N[C@@H](CCCNC(=N)N)C(=O)N[C@@H](CC(C)C)C(=O)N[C@@H](CO)C(=O)N[C@@H](C)C(=O)N[C@@H](CCC(=O)O)C(=O)N[C@@H](CC(C)C)C(=O)N[C@@H](Cc1cnc[nH]1)C(=O)N[C@@H](CCC(=O)O)C(=O)N[C@@H](CC(C)C)C(=O)N[C@@H](C)C(=O)N[C@H](C(=O)N[C@@H](CC(C)C)C(=O)N1CCC[C@H]1C(=O)N[C@@H](CCCNC(=N)N)C(=O)N[C@H](C(=O)N[C@@H](CCC(=O)O)C(=O)N[C@H](C(=O)NCC(=O)N[C@@H](CO)C(=O)NCC(=O)N[C@@H](CO)C(=O)N1CCC[C@H]1C(N)=O)[C@@H](C)O)[C@@H](C)O)[C@@H](C)O ({C20 diacid-γGlu}-ASELSTAALGRLSAELHELATLPRTETGSGSP-NH2) | 79% | 49%
≥ 200 µM | ≥ 200 µM | 10.55 | > 45 h | 10.46 | ≥ 200 µM | ≥ 200 µM | 10.33 | 10.18 | ≥ 200 µM | 100% | ≥ 200 µM | – | ≥ 200 µM | ≥ 200 µM | – | CC(C)C[C@H](NC(=O)CNC(=O)[C@H](CO)NC(=O)[C@H](C)NC(=O)CC[C@H](NC(=O)CCCCCCCCCCCCCCCCCCC(=O)O)C(=O)O)C(=O)N[C@@H](CO)C(=O)N[C@H](C(=O)N[C@@H](C)C(=O)N[C@H](C(=O)N[C@@H](CC(C)C)C(=O)NCC(=O)N[C@@H](CCCNC(=N)N)C(=O)N[C@@H](CC(C)C)C(=O)N[C@@H](CO)C(=O)N[C@@H](C)C(=O)N[C@@H](CCC(=O)O)C(=O)N[C@@H](CC(C)C)C(=O)N[C@@H](Cc1cnc[nH]1)C(=O)N[C@@H](CCC(=O)O)C(=O)N[C@@H](CC(C)C)C(=O)N[C@@H](C)C(=O)N[C@H](C(=O)N[C@@H](Cc1ccc(O)cc1)C(=O)N1CCC[C@H]1C(=O)N[C@@H](CCCNC(=N)N)C(=O)N[C@H](C(=O)N[C@@H](CCC(=O)O)C(=O)N[C@H](C(=O)NCC(=O)N[C@@H](CO)C(=O)NCC(=O)N[C@H](C(=O)N1CCC[C@H]1C(N)=O)[C@@H](C)O)[C@@H](C)O)[C@@H](C)O)[C@@H](C)O)C(C)C)[C@@H](C)O ({C20 diacid-γGlu}-ASGLSTAVLGRLSAELHELATYPRTETGSGTP-NH2) | 57% | 52%
≥ 200 µM | ≥ 200 µM | 10.40 | 8.4 h | 9.85 | ≥ 200 µM | ≥ 200 µM | 10.28 | – | ≥ 200 µM | 90% | – | 10.04 | – | – | 8.83 | CC(C)C[C@H](NC(=O)CNC(=O)[C@H](CO)NC(=O)[C@H](C)NC(=O)CC[C@H](NC(=O)CCCCCCCCCCCCCCCCCCC(=O)O)C(=O)O)C(=O)N[C@@H](CO)C(=O)N[C@H](C(=O)N[C@@H](CC(C)C)C(=O)N[C@H](C(=O)N[C@@H](CC(C)C)C(=O)NCC(=O)N[C@@H](CCCNC(=N)N)C(=O)N[C@@H](CC(C)C)C(=O)N[C@@H](CO)C(=O)N[C@@H](CCC(N)=O)C(=O)N[C@@H](CCC(=O)O)C(=O)N[C@@H](CC(C)C)C(=O)N[C@@H](Cc1cnc[nH]1)C(=O)N[C@@H](CCC(=O)O)C(=O)N[C@@H](CC(C)C)C(=O)N[C@@H](CCC(N)=O)C(=O)N[C@H](C(=O)N[C@@H](Cc1ccc(O)cc1)C(=O)N1CCC[C@H]1C(=O)N[C@@H](CCCNC(=N)N)C(=O)N[C@H](C(=O)N[C@@H](CCC(=O)O)C(=O)N[C@H](C(=O)NCC(=O)N[C@@H](CO)C(=O)N[C@@H](CCC(N)=O)C(=O)N[C@H](C(=O)N[C@@H](Cc1ccc(O)cc1)C(N)=O)[C@@H](C)O)[C@@H](C)O)[C@@H](C)O)[C@@H](C)O)C(C)C)[C@@H](C)O ({C20 diacid-γGlu}-ASGLSTLVLGRLSQELHELQTYPRTETGSQTY-NH2) | 24% | 34%
